Test results: patent US20040019430A1, “Methods and systems for analyzing complex biological systems” (priority 2001, published 2004)

Experiments:
[1] = test system: Saccharomyces cerevisiae wild type strain BY4743; assay: AF1 metabolite analysis (GC-MS, LC-MS) of yeast cells treated with antifungal drugs; format: cell-based; set-up: Fold Change: scale not given here; conditions: for # Compounds perturbed by treatment: yeast, 2x MIC, two hours
[2] = test system: Saccharomyces cerevisiae wild type strain BY4743; assay: AF1 combined gene expression and metabolite data mapped to KEGG reactions and pathways; format: cell-based; conditions: yeast AF1
Text: In AF1, two different technologies were utilized: gene expression analysis (for examination of mRNA expression) and metabolite analysis. […] As noted previously, existing metabolic databases may be helpful in practicing the methods and systems of the present invention, but many databases include limitations that make their use in data analysis and pathway mapping less than straightforward. […] This caveat to KEGG makes it difficult to pinpoint the correct pathway when attempting to link a gene to a specific pathway. […] The pathway score indicates how meaningful the mapping is, or how likely it is to be correctly indicative of the pathway involved in the perturbation under examination. The method provides a pathway score based on perturbation levels of genes and/or compounds and the information content of each gene and/or compound in the pathway, i.e., a pathway score indicates the extent to which other pathways are mapped to a gene/compound. For example, imagine that two genes are perturbed in a particular experiment. One gene maps to only one pathway, giving a high degree of probability that the perturbed pathway is the one identified in the mapping. The second gene maps to three pathways. In the later example, there is only one-third the probability that the pathway identified in the mapping is the one perturbed. The present invention provides a method for calculating the pathway scores, so that more weight is given to a score of a gene or compound that maps to only one pathway than to a score of a gene or compound that maps to multiple pathways. […] Where n=the total number of genes in the pathway; ipath—count=the number of pathways containing a gene; and j=the number of genes in the pathway that are perturbed. Another factor to be considered when weighting a pathway score is the degree of perturbation. Degree of perturbation can be calculated, for example, based on a number of standard deviations from a norm, and included in an equation such as the one shown above, so that not only the number of pathways is taken into account, but also accounts for the amount of gene transcript or compound present as compared to a control. Compounds were also linked to pathways using the KEGG database. KEGG links 676 compounds measured in AF1 to a total of 92 pathways. Of the 676 compounds under consideration, 77 were detected in the AF1 samples. […] The multiple mapping feature of KEGG makes it difficult to pinpoint the correct pathway when trying to link a compound to a specific pathway. […] A pathway score calculation is applied to the compounds to account for both information content (number of pathways a compound maps to) and perturbation level. The data were then combined to determine the number of reactions showing an enzyme and at least one compound perturbed, and to determine the number of pathways having at least one enzyme and one perturbed compound perturbed. The results of the analysis are represented in Tables 16 and 17, and were difficult to interpret, illustrating that the ability to draw conclusions from compound mapping to pathways is limited when absent additional data.

C[C@@H]1[C@H](O)[C@@H](C)/C=C/C=C/C=C/C=C/C=C/C=C/C=C/[C@H](O[C@@H]2O[C@H](C)[C@@H](O)[C@H](N)[C@@H]2O)C[C@@H]2O[C@](O)(C[C@@H](O)C[C@@H](O)[C@H](O)CC[C@@H](O)C[C@@H](O)CC(=O)O[C@H]1C)C[C@H](O)[C@H]2C(=O)O [Amphoteracin B]
# Compounds perturbed by treatment ([1]; P < 0.05): 16
# Compounds perturbed by treatment ([1]; P < 0.1): 21
Fold Change ([1]; metabolite 3-indolylacetonitri, platform nLC): −0.9998
Fold Change ([1]; metabolite 4-aminobenzoic acid, platform pLC): 0
Fold Change ([1]; metabolite 4-methylcatechol, platform nLC): 0
Fold Change ([1]; metabolite 4-methylcatechol, platform pLC): 0
Fold Change ([1]; metabolite 4ambutyrate/dimglyc, platform pLC): 0.01279
Fold Change ([1]; metabolite 4aminobutyrate/dimg, platform nLC): −0.1983
Fold Change ([1]; metabolite DL-aminoadipic acid, platform pLC): 0.4703
Fold Change ([1]; metabolite DLaminoadipic acid, platform nLC): 1.411
Fold Change ([1]; metabolite NacetylD-glucosamine, platform nLC): 0
Fold Change ([1]; metabolite NacetylD-glucosamine, platform pLC): 0
Fold Change ([1]; metabolite NacetylL-glutamate, platform nLC): −0.1078
Fold Change ([1]; metabolite NacetylL-glutamate, platform pLC): 0
Fold Change ([1]; metabolite NacetylL-ornithine, platform nLC): 0
Fold Change ([1]; metabolite NacetylL-ornithine, platform pLC): 1.319
Fold Change ([1]; metabolite decanoic acid, platform nLC): −0.08716
Fold Change ([1]; metabolite desmosterol, platform GC): 0
Fold Change ([1]; metabolite diaminopimelic acid, platform nLC): 0
Fold Change ([1]; metabolite diaminopimelic acid, platform pLC): 0
Fold Change ([1]; metabolite dihydrofolic acid, platform nLC): 0
Fold Change ([1]; metabolite dihydrofolic acid, platform pLC): 0
Fold Change ([1]; metabolite dipicolinic acid, platform pLC): 0
Fold Change ([1]; metabolite disaccaride1, platform GC): −1
Fold Change ([1]; metabolite disaccaride2, platform GC): −0.9977
Fold Change ([1]; metabolite disaccaride3, platform GC): −0.9977
Fold Change ([1]; metabolite ergosterol, platform GC): 2.303
Fold Change ([1]; metabolite estrone, platform nLC): 0
Fold Change ([1]; metabolite farnesol, platform nLC): 0
Fold Change ([1]; metabolite folic acid, platform nLC): 0
Fold Change ([1]; metabolite folic acid, platform pLC): 0
Fold Change ([1]; metabolite fucosterol, platform GC): −0.6553
Fold Change ([1]; metabolite fumaric/3m2oxobutan, platform nLC): 0.4423
Fold Change ([1]; metabolite gallic acid, platform nLC): 0.1622
Fold Change ([1]; metabolite gibberellic, platform nLC): 0
Fold Change ([1]; metabolite glucosamine-6PO4, platform nLC): −0.9951
Fold Change ([1]; metabolite glucosamine-6PO4, platform pLC): 0
Fold Change ([1]; metabolite glucosamine, platform pLC): 0
Fold Change ([1]; metabolite glutamate, platform pLC): 0.4341
Fold Change ([1]; metabolite glutamic/acetylseri, platform nLC): 0.1414
Fold Change ([1]; metabolite glutamine/lysine, platform nLC): 0.07919
Fold Change ([1]; metabolite glutamine/lysine, platform pLC): 0.3981
Fold Change ([1]; metabolite glutamine, platform GC): −0.9116
Fold Change ([1]; metabolite glutathione, platform pLC): −0.03348
Fold Change ([1]; metabolite glycanopyrose, platform GC): −0.958
Fold Change ([1]; metabolite glycerol, platform GC): −0.815
Fold Change ([1]; metabolite glycine, platform GC): 0.8807
Fold Change ([1]; metabolite guanine, platform nLC): 0
Fold Change ([1]; metabolite guanosine, platform nLC): 1.131
Fold Change ([1]; metabolite guanosine, platform pLC): 0.7598
Fold Change ([1]; metabolite hexadecanoic acid, platform GC): −0.2427
Fold Change ([1]; metabolite histidine, platform nLC): 0
Fold Change ([1]; metabolite histidine, platform pLC): 0
Fold Change ([1]; metabolite homogentisic/uric, platform nLC): 0
Fold Change ([1]; metabolite hydrocortisone, platform nLC): 0
Fold Change ([1]; metabolite hydrocortisone, platform pLC): 0
Fold Change ([1]; metabolite hypoxanthine, platform nLC): 0.1655
Fold Change ([1]; metabolite hypoxanthine, platform pLC): 0.2057
Fold Change ([1]; metabolite indole3-pyruvic acid, platform nLC): 0
Fold Change ([1]; metabolite inostol/glucos/sorb, platform nLC): −0.5905
Fold Change ([1]; metabolite iso citric acid, platform GC): −0.6183
Fold Change ([1]; metabolite isocitric/citric/qu, platform nLC): 2.549
Fold Change ([1]; metabolite isoleucine, platform GC): −0.9533
Fold Change ([1]; metabolite itaconic acid dimes, platform pLC): 0
Fold Change ([1]; metabolite jasmonic acid, platform nLC): 0
Fold Change ([1]; metabolite kinetin, platform nLC): 0
Fold Change ([1]; metabolite kinetin, platform pLC): 0
Fold Change ([1]; metabolite lactic acid, platform nLC): −0.02583
Fold Change ([1]; metabolite lanosterol, platform GC): −1
Fold Change ([1]; metabolite lauric acid, platform nLC): 0.1225
Fold Change ([1]; metabolite leucine/isoleucine/, platform nLC): 0.1319
Fold Change ([1]; metabolite leucine/isoleucine/, platform pLC): 0.2746
Fold Change ([1]; metabolite leucine, platform GC): −0.9443
Fold Change ([1]; metabolite luteolin, platform nLC): 0
Fold Change ([1]; metabolite luteolin, platform pLC): 0
Fold Change ([1]; metabolite lysine, platform GC): −0.3925
Fold Change ([1]; metabolite malic acid, platform GC): −0.963
Fold Change ([1]; metabolite malic acid, platform nLC): 0.6212
Fold Change ([1]; metabolite malonic acid, platform nLC): 0
Fold Change ([1]; metabolite mannitol, platform pLC): 0.4543
Fold Change ([1]; metabolite menthol*, platform nLC): −0.07013
Fold Change ([1]; metabolite methionine, platform nLC): 0
Fold Change ([1]; metabolite methionine, platform pLC): 0.3299
Fold Change ([1]; metabolite mevalonic acid lactone, platform GC): −0.1276
Fold Change ([1]; metabolite mevalonic lactone, platform pLC): −0.4606
Fold Change ([1]; metabolite niacinamide, platform pLC): 0
Fold Change ([1]; metabolite nicotinic acid, platform nLC): 0.3131
Fold Change ([1]; metabolite nicotinic acid, platform pLC): −0.9989
Fold Change ([1]; metabolite nopaline, platform nLC): 0.3342
Fold Change ([1]; metabolite nopaline, platform pLC): 0
Fold Change ([1]; metabolite octadecanoic acid, platform GC): 0.21
Fold Change ([1]; metabolite oleic acid, platform GC): −0.4593
Fold Change ([1]; metabolite oleic acid, platform nLC): 0.689
Fold Change ([1]; metabolite ornithine2, platform GC): −1
Fold Change ([1]; metabolite ornithine3, platform GC): −0.9853
Fold Change ([1]; metabolite ornithine, platform nLC): 2.534
Fold Change ([1]; metabolite ornithine, platform pLC): 0.5049
Fold Change ([1]; metabolite orotic acid, platform nLC): 8380
Fold Change ([1]; metabolite palmiteliadic acid, platform GC): 0.515
Fold Change ([1]; metabolite palmitic acid, platform nLC): 0.3979
Fold Change ([1]; metabolite phenylalanine, platform GC): −0.9797
Fold Change ([1]; metabolite phenylalanine, platform nLC): −0.1906
# Reactions (title: Number Of Pathways Having at Least One Enzyme and One Compound Perturbed) [2]: 37
# Reactions having an enzyme and at least one compound perturbed [2]: 54
